# In the Kinase Knowledgebase extract (Sharma et al. 2016):
# Biological target: EGFR (UniProt P00533)
# Conditions: not given
# Sequence of EGFR (P00533 whole entry, looked up): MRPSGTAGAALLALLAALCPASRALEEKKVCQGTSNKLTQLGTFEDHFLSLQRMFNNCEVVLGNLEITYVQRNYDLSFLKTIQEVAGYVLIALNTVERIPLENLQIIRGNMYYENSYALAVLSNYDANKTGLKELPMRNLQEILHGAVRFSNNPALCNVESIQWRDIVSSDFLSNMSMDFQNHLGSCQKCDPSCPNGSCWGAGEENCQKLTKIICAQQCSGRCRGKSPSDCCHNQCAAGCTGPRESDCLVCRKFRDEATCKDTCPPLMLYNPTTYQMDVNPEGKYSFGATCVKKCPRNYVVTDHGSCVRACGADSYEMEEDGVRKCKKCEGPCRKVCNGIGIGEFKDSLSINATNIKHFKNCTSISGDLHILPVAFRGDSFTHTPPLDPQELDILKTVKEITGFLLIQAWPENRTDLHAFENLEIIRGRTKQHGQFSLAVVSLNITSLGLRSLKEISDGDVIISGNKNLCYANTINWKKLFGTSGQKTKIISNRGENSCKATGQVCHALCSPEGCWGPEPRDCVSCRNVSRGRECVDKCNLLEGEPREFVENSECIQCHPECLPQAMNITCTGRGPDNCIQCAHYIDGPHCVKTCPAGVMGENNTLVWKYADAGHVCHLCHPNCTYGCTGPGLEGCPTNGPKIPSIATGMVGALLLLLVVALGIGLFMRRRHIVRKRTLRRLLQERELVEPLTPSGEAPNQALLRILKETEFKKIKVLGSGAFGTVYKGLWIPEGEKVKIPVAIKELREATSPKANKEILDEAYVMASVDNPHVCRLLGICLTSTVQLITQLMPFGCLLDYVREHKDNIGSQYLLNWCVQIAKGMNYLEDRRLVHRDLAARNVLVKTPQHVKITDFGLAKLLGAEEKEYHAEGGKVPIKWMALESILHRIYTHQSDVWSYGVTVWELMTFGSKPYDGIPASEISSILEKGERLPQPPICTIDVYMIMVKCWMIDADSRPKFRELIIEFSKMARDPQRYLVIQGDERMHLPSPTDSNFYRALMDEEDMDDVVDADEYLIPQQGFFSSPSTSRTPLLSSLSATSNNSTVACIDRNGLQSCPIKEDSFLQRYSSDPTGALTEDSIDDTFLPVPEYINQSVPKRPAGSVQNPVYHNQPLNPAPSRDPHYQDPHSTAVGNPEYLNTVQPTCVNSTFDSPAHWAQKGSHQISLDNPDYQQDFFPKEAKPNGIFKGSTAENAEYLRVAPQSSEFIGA
row,SMILES,IC50
1,O=c1ccc2ccc(O)c(O)c2o1,7.67 µM

# Same assay, conditions: concentration not given here
row,SMILES,inhibition
1,O=c1ccc2ccc(O)c(O)c2o1,99.6%
2,O=c1ccc2cc(O)c(O)cc2o1,0%
3,O=c1ccc2ccccc2o1,0%
4,O=c1ccc2ccc(O)cc2o1,0%
5,OC1C=Cc2ccccc2O1 (configuration not stated),0%
6,O=c1cc(O)c2ccccc2o1,0%
